Calls of active or inactive are those of the source. No cut-off for these calls is given here.
Columns and labels:
HeLa [1] = assay: Antiproliferative activity against human HeLa cells assessed as cell viability at 1 uM after 24 hrs by MTT assay relative to control; assay type: functional; settings: read-out: Activity
HeLa [2] = assay: Modulation of autophagy in human HeLa cells assessed as increase in LC3-2 protein level at 1 to 20 uM after 24 hrs by Western blot analysis; assay type: functional, cell-based; settings: dose 1-20 µM
HeLa [3] = assay: Inhibition of autophagy in human HeLa cells assessed as increase in P62 protein level at 1 to 20 uM after 24 hrs by Western blot analysis; assay type: functional, cell-based; settings: dose 1-20 µM
HeLa [4] = assay: Antiproliferative activity against human HeLa cells assessed as cell viability at 20 uM after 24 hrs by MTT assay relative to control; assay type: functional; settings: read-out: Activity
HeLa [5] = assay: Antiproliferative activity against human HeLa cells assessed as cell viability at 10 uM after 24 hrs by MTT assay relative to control; assay type: functional; settings: read-out: Activity
HeLa [6] = assay: Induction of autophagosome formation in human HeLa cells assessed as increase in LC3 puncta at 10 uM after 24 hrs by Alexa Fluor 488 staining based fluorescence microscopic analysis; assay type: functional, cell-based
HeLa [7] = assay: Induction of autophagosome formation in human HeLa cells assessed as increase in LC3 puncta at 10 uM after 24 hrs in presence of Baf A1 by Alexa Fluor 488 staining based fluorescence microscopic analysis; assay type: functional, cell-based
HeLa [8] = assay: Induction of autophagosome formation in human HeLa cells assessed as increase in LC3 puncta at 10 uM after 6 hrs in presence of rapamycin by Alexa Fluor 488 staining based fluorescence microscopic analysis; assay type: functional, cell-based
HT-1080 = assay: Induction of autophagosome formation in HT-1080 cells assessed as increase in LC3 puncta at 10 uM after 24 hrs by Alexa Fluor 488 staining based fluorescence microscopic analysis; assay type: functional, cell-based; settings: Homo sapiens
SK-MEL-28 = assay: Induction of autophagosome formation in SK-MEL-28 cells assessed as increase in LC3 puncta at 10 uM after 24 hrs by Alexa Fluor 488 staining based fluorescence microscopic analysis; assay type: functional, cell-based; settings: Homo sapiens
HeLa [9] = assay: Modulation of autophagy in human HeLa cells assessed as increase in LC3-2 protein level at 10 uM after 24 hrs in presence of Baf A1 by Western blot analysis; assay type: functional, cell-based
HeLa [10] = assay: Modulation of autophagy in human HeLa cells assessed as increase in LC3-2 protein level at 10 uM after 24 hrs in presence of chloroquine by Western blot analysis; assay type: functional, cell-based
HeLa [11] = assay: Inhibition of autophagy in human HeLa cells assessed as increase in P62 protein level at 10 uM after 24 hrs in presence of Baf A1 by Western blot analysis; assay type: functional, cell-based
HeLa [12] = assay: Inhibition of autophagy in human HeLa cells assessed as increase in P62 protein level at 10 uM after 24 hrs in presence of chloroquine by Western blot analysis; assay type: functional, cell-based
HeLa [13] = assay: Inhibition of autophagy in human HeLa cells assessed as increase in lysosomal pH at 10 uM after 24 hrs by LysoTracker Red DND-99 staining based fluorescence microscopic method; assay type: functional, cell-based
HeLa [14] = assay: Inhibition of autophagy in human HeLa cells assessed as decrease in cathepsin B at 10 nM after 24 hrs by immunoblot analysis; assay type: functional, cell-based
HeLa [15] = assay: Inhibition of autophagy in human HeLa cells assessed as increase in P62 protein level at 10 nM after 24 hrs by Western blot analysis; assay type: functional, cell-based
HeLa [16] = assay: Induction of autophagosome formation in human HeLa cells assessed as increase in LC3 puncta at 10 nM after 24 hrs by Alexa Fluor 488 staining based fluorescence microscopic analysis; assay type: functional, cell-based
HeLa [17] = assay: Inhibition of autophagy in human HeLa cells assessed as increase in lysosomal pH at 10 nM after 24 hrs by LysoTracker Red DND-99 staining based fluorescence microscopic method; assay type: functional, cell-based
HeLa [18] = assay: Induction of autophagy in human HeLa cells assessed as decrease in P62 protein level at 1 uM after 24 hrs by Western blot analysis; assay type: functional, cell-based

## C1=C\C/C=C\CC[C@@]23CN(CC/C=C\C/1)C[C@H]1C/C4=C/C/C=C\CCCCN(C2)[C@@H]4C[C@H]13
HeLa [1]
  viability at 1 µM: 95.2%
HeLa [2]
  Activity: Active
HeLa [3]
  inhibition: Active
HeLa [4]
  viability at 20 µM: 1.4%
HeLa [5]
  viability at 10 µM: 2.9%
HeLa [6]
  Activity: Active
HeLa [7]
  Activity: Active
HeLa [8]
  Activity: inactive
HT-1080
  Activity: Active
SK-MEL-28
  Activity: Active
HeLa [9]
  inhibition: Active
HeLa [10]
  inhibition: Active
HeLa [11]
  inhibition: Active
HeLa [12]
  inhibition: Active
HeLa [13]
  inhibition: Active
HeLa [14]
  inhibition: Active

## CO/C1=C\C(C)=C\[C@@H](C)[C@@H](O)[C@@H](C)C/C(C)=C/C=C/[C@H](OC)[C@@H]([C@@H](C)[C@@H](O)[C@H](C)[C@@]2(O)C[C@@H](O)[C@H](C)[C@@H](C(C)C)O2)OC1=O
HeLa [15]
  inhibition: Active
HeLa [16]
  Activity: Active
HeLa [17]
  inhibition: inactive

## CO[C@H]1C[C@@H]2CC[C@@H](C)[C@@](O)(O2)C(=O)C(=O)N2CCCC[C@H]2C(=O)O[C@H]([C@H](C)C[C@@H]2CC[C@@H](O)[C@H](OC)C2)CC(=O)[C@H](C)/C=C(\C)[C@@H](O)[C@@H](OC)C(=O)[C@H](C)C[C@H](C)/C=C/C=C/C=C/1C
HeLa [18]
  Activity: Active

## CCN(CC)CCCC(C)Nc1ccnc2cc(Cl)ccc12 (stereo unspecified)
HeLa [13]
  inhibition: Active

Reference: ChEMBL document CHEMBL4715915, “Identification of madangamine A as a novel lysosomotropic agent to inhibit autophagy” (2021)
